# Assay results taken from patent US20230190924A1, “ANTIGEN OF ALLERGY AND EPITOPE THEREOF” (HOYU CO., LTD., priority 2017, published 2023).
# System: IgE antibodies from patients
# Assay: Epitope mapping (2) overlapping (10-amino-acid peptides) and (3) alanine scanning on peptide arrays
# Assay type: binding, human
# Conditions: overlapping peptides with flanking sequence
# Summary of the method: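 Overlapping 10-mer peptides shifted by one residue, and alanine-substituted peptides, spotted on cellulose and probed with patient and non-egg-allergic sera; IgE binding read by anti-human IgE-HRP chemiluminescence. Signal expressed relative to parent sequence and graded in bands from <20% (no binding) to ≥90% (retained binding).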
"binding to IgE antibodies from patients, sequence comprising a region amino-terminally adjacent to the epitope","binding to IgE antibodies from patients, sequence comprising a region carboxy-terminally adjacent to the epitope",Substance
binding to IgE antibodies from patients,–,SEQ ID NO: 363: sequence comprising a region amino-terminally adjacent to epitope 6 (VVNSPRT; epitope)
binding to IgE antibodies from patients,–,SEQ ID NO: 550: sequence comprising a region amino-terminally adjacent to epitope 30 (EDTCTGACK; epitope)
–,binding to IgE antibodies from patients,SEQ ID NO: 426: sequence comprising a region carboxy-terminally adjacent to epitope 11 (LKNLKIETNP; epitope)
binding to IgE antibodies from patients,–,SEQ ID NO: 604: sequence comprising a region amino-terminally adjacent to epitope 38 (LVNYSPTK; epitope)
binding to IgE antibodies from patients,–,SEQ ID NO: 565: sequence comprising a region amino-terminally adjacent to epitope 34 (QDGTKVKLY; epitope)
–,binding to IgE antibodies from patients,SEQ ID NO: 584: sequence comprising a region carboxy-terminally adjacent to epitope 36 (EPTLEALFG; epitope)
binding to IgE antibodies from patients,–,SEQ ID NO: 498: sequence comprising a region amino-terminally adjacent to epitope 21 (ALAAPGHGID; epitope)
binding to IgE antibodies from patients,–,SEQ ID NO: 516: sequence comprising a region amino-terminally adjacent to epitope 23 (PCRGACKLH; epitope)
binding to IgE antibodies from patients,–,SEQ ID NO: 377: sequence comprising a region amino-terminally adjacent to epitope 8 (IKELGKALQG; epitope)
binding to IgE antibodies from patients,–,SEQ ID NO: 404: sequence comprising a region amino-terminally adjacent to epitope 9 (EVAFININKE; epitope)
binding to IgE antibodies from patients,–,SEQ ID NO: 480: sequence comprising a region amino-terminally adjacent to epitope 20 (AGEATNLKAI; epitope)
binding to IgE antibodies from patients,–,SEQ ID NO: 359: sequence comprising a region amino-terminally adjacent to epitope 6 (VVNSPRTMF; epitiope)
–,binding to IgE antibodies from patients,SEQ ID NO: 465: sequence comprising a region carboxy-terminally adjacent to epitope 19 (VKFNYSMPAN; epitope)

# Same assay, conditions: procedures (B) overlapping and (C) alanine scanning
row,region within the epitope important for binding to IgE antibodies from patients,Substance
1,important for binding,SEQ ID NO: 636: region in epitope 41 (SGYLKMFG; epitope)
2,important for binding,SEQ ID NO: 491: region in epitope 21 (AAPGHG; epitope)
3,important for binding,SEQ ID NO: 587: region in epitope 37 (SGIV; epitope)
4,important for binding,SEQ ID NO: 500: region in epitope 21 (DKLYFDG; epitope)
5,important for binding,SEQ ID NO: 619: region in epitope 39 (DRKVALTDMT; epitope)
6,important for binding,SEQ ID NO: 388: region in epitope 8 (KALQGWKEL; epitope)
7,important for binding,SEQ ID NO: 400: region in epitope 8 (GWKELPTETP; epitope)
8,important for binding,SEQ ID NO: 419: region in epitope 11 (DVKLKNLK; epitope)
9,important for binding,SEQ ID NO: 627: region in epitope 41 (SGYLKMFG; epitope)
10,important for binding,SEQ ID NO: 664: region in epitope 46 (MSFDSDS; epitope)
11,important for binding,SEQ ID NO: 440: region in epitope 15 (SSNSKSS; epitope)
12,important for binding,SEQ ID NO: 414: region in epitope 10 (ADRNA; epitope)
13,important for binding,SEQ ID NO: 561: region in epitope 34 (DEPLN; epitope)
14,important for binding,SEQ ID NO: 641: region in epitope 41 (SGYLKMF; epitope)
15,important for binding,SEQ ID NO: 569: region in epitope 34 (VKLYPEKDEP; epitope)
16,important for binding,SEQ ID NO: 369: region in epitope 6 (TMFPSAIISK; epitope)
17,important for binding,SEQ ID NO: 669: region in epitope 47 (YSDVPIEKI; epitope)
18,important for binding,SEQ ID NO: 533: region in epitope 27 (ICGKYDAE; epitope)
19,important for binding,SEQ ID NO: 592: region in epitope 37 (SGIVTPGAK; epitope)
20,important for binding,SEQ ID NO: 412: region in epitope 10 (MKTVVEPA; epitope)
21,important for binding,SEQ ID NO: 649: region in epitope 42 (DTLQNVLQ; epitope)
22,important for binding,SEQ ID NO: 461: region in epitope 19 (KIKTF; epitope)
23,important for binding,SEQ ID NO: 356: region in epitope 5 (KLDS; epitope)
24,important for binding,SEQ ID NO: 458: region in epitope 17 (KWKLCADAS; epitope)
25,important for binding,SEQ ID NO: 470: region in epitope 20 (EATNLKAIN; epitope)
